Measured values from patent US20250066323A1, “INHIBITORS OF HUMAN RESPIRATORY SYNCYTIAL VIRUS AND METAPNEUMOVIRUS” (priority 2023, published 2025).
Where two headings read alike, the source gives them in different places.

Legend:
RSV-A2-GFP = RSV-A2-GFP viral replication assay; type: cell-based, Human Respiratory Syncytial Virus
Excerpt: GFP sequence was derived from pJTI™ R4 Dest CMV N-EmGFP pA Vector (Invitrogen) and was cloned into the intergenic sequence between wild-type RSV-A2 P and M genes using standard recombineering techniques. Recombinant RSV-A2-GFP was propagated in Hep2 cells (human cells contains HeLa marker chromosomes and were derived via HeLa contamination, ATCC CCL-23) with infection Multiplicity of Infection (MOI) of 0.1. Virus was harvested 3 days after infection by collecting all culture material and freeze-thaw the viral culture in liquid nitrogen for at least 5 times. To generating virus working stocks, thaw frozen samples in 37° C. water bath then centrifuge at 218 g for 15 min at 4° C. Add 1/10 of 10×SPG (Biological Industries 06-3061-01-5A), mix, aliquot supernatant, and quick-freeze in liquid nitrogen then transfer to −80° C. freezer for storage. Virus titer was determined by automated plaque assay in HEp-2 cells following methods described previously (Wen Z. et al.; J Virol Methods. 2019 January; 263:88-95).
Calu-1 cells (human lung epidermoid carcinoma, ATCC HTB-54) assay ready freezedown (ARF generation described separately) were used in assays. Compound plates were prepared by dispensing compounds dissolved in DMSO into wells of 384 well coming 3985 polystyrene flat clear bottom optical imaging microplates (202.5 nL/well) using an ECHO acoustic dispenser. Each compound was tested in a 10-point serial 3-fold dilution (typical final concentrations: 403 nM-0.02 nM and 40.3 nM-0.002 nM). […] To set up the assay, thaw ARF vial(s) in 37° C. water bath until small ice crystal remain and resuspend into assay media (DMEM containing 2% FBS, 100 U/ml Penicillin-Streptomycin). Count cells using default parameters on ViCell and dilute to 20,000 cells per ml in assay media. Add RSV GFP to cells at 24,000 pfu/ml (MOI=1.2). Mix by gentle inversion. 10 μl/well of 100% DMSO was dispensed to CellTiter-Glo (CTG) assay Max_E controls wells. Dispense cells at 50 μl/well using Bravo and 50 μl filtered tips into compound plates. Cover plates with MicroClime lids loaded with 7.5 ml of assay media to minimize evaporation. Incubate at 37 degrees C. and 5% CO2 for 96 hrs. Following incubation, distinct, GFP-expressing cells are counted using an Acumen imaging system with appropriate settings. A same-well CTG assay is performed by adding 10 μl/well reconstituted CellTiter-Glo reagent (Promega G7573) and reading plates on PerkinElmer Envision according to manufacturer's instructions. Raw data were loaded and analyzed in ActivityBase. Antiviral IC50 and cytotoxicity CC50 values were determined using a 4 parameter logistic fit based on the Levenberg-Marquardt algorithm. Model: 205-4 Parameter Logistic.
Calu-1 cells were purchased from ATCC (Cat #HTB-54) and are expanded in growth media (DMEM containing 10% FBS, 100 U/ml Penicillin-Streptomycin). To make ARF, remove and discard cell culture media, briefly rinse the cell layer with PBS to remove all traces of serum. Add 2.5 ml of TrypLE Express solution and incubate until cells dislodge, then add growth media and resuspend the cells by gentle pipetting. Count cells for concentration and determine viability using a ViCell. Centrifuge at RT, 300 g for 5 min to pellet cells. Gently aspirate supernatant, flick pellet to loosen cells. Resuspend cells in an appropriate volume of freezing medium (DMEM containing 10% DMSO, 10% FBS, 100 U/ml Penicillin-Streptomycin) to achieve 5×10^6/ml. Transfer 1 ml of cell suspension to freezing vials. Put vials to CoolCell cryopreservation container and place CoolCell container upright in a −80° C. freezer overnight before transferring vials to liquid nitrogen vapor for storage.

hMPV-GFP = hMPV-GFP viral replication assay; type: cell-based, human metapneumovirus; conditions: read-out: hMPV EC50
Description: GFP expressing rgHMPV #3 p3 was generated in Dr. Buchholz's lab (Biacchesi S. et al., J Virol. 2007 June; 81(11): 6057-6067.) and propagated in VERO cells (kidney tissue derived from a normal, adult African green monkey. ATCC Cat #CCL-81) with infection Multiplicity of Infection (MOI) of 0.1. Virus was harvested 4 days after infection by collecting all culture material and freeze-thaw the viral culture in liquid nitrogen twice. To generating virus working stocks, thaw frozen samples in 37° C. water bath then centrifuge at 218 g for 15 min at 4° C. Add 1/10 of 10×SPG (Biological Industries 06-3061-01-5A), mix, aliquot supernatant, and quick-freeze in liquid nitrogen then transfer to −80° C. freezer for storage. Virus titer was determined by performing titration test in 96-well plates and calculate approximate virus titer using GFP event/well data.
Compound plates were prepared by dispensing compounds dissolved in DMSO into wells of 384 well coming 3985 polystyrene flat clear bottom optical imaging microplates (202.5 nL/well) using an ECHO acoustic dispenser. Each compound was tested in a 10-point serial 3-fold dilution (typical final concentrations: 40,300 nM-2 nM). […] Continuous culture of VERO cells were maintained in complete culture media (OptiMEM supplemented with 2 mM GlutaMAX™ and 100 U/ml Penicillin-Streptomycin). To set up the assay, trypsinize VERO cells with 0.25% Trypsin-EDTA until cells dislodge, then re-suspend cells with 1 mL FBS. Spin down cells at 300 g for 5 min and wash cells twice in culture media, then count cells using default parameters on ViCell. Cells were then diluted to 100,000 cells/ml (5,000 cells/50 μl) in complete culture media+TrypLE Select (80 μl/ml). Add hMPV-GFP virus to cells at 125,000 pfu/ml (MOI=1.25). Mix by gentle inversion. 10 μl/well of 100% DMSO was dispensed to CellTiter-Glo (CTG) assay Max_E controls wells. Dispense cells at 50 μl/well using Bravo and 50 μl filtered tips into compound plates. Cover plates with MicroClime lids loaded with 7.5 ml of assay media to minimize evaporation. Lightly shake plate for 10 minutes at room temperature then incubate at 37 degrees C. and 5% CO2 for 48 hrs. Following incubation, distinct, GFP-expressing cells are counted using an Acumen imaging system with appropriate settings. A same-well CTG assay is performed by adding 10 μl/well reconstituted CellTiter-Glo reagent (Promega G7573) and reading plates on PerkinElmer Envision according to manufacturer's instructions. Raw data were loaded and analyzed in ActivityBase. Antiviral IC50 and cytotoxicity CC50 values were determined using a 4 parameter logistic fit based on the Levenberg-Marquardt algorithm. Model: 205-4 Parameter Logistic.

[1] = read-out: RSV EC50, Calu-1 cells, RSV-A2-GFP MOI=1.2, 96 hrs, GFP-expressing cells counted
[2] = human metapneumovirus, Vero, 48 h
[3] = human respiratory syncytial virus, Calu-1, 96 h, read-out: RSV EC50, Calu-1 cells, RSV-A2-GFP MOI=1.2, 96 hrs, GFP-expressing cells counted

Row | SMILES | EC50 (RSV-A2-GFP; [1]) [nM] | EC50 (hMPV-GFP; [2]) [nM] | EC50 (hMPV-GFP; VERO cells, hMPV-GFP MOI=1.25, 48 hrs, GFP-expressing cells counted) [nM] | EC50 (RSV-A2-GFP; [3]) [nM]
1 | CCOc1cc(C(=O)NCC(C)(O)c2cc(C(C)(C)N)cc(-c3ccc(F)cc3)n2)n(C)n1 (single isomer, unassigned) [Example 01-A] | > 100 | > 100 | – | –
2 | CCOc1cc(C(=O)NCC(C)(O)c2cc(C(C)(C)N)cc(-c3ccc(F)cc3)n2)n(C)n1 (single isomer, unassigned) [Example 01-B] | < 10 | – | > 100 | –
3 | Cn1nc(-n2cccn2)cc1C(=O)NCC(C)(O)c1cc(C(C)(C)N)cc(-c2ccc(F)cc2)n1 (single isomer, unassigned) [Example 02-B] | – | > 100 | – | < 10
4 | Cn1nc(-c2ccon2)cc1C(=O)NCC(C)(O)c1cc(C(C)(C)N)cc(-c2ccc(F)cc2)n1 (single isomer, unassigned) [Example 03-B] | – | > 100 | – | < 10
5 | Cn1nc(-c2ncco2)cc1C(=O)NCC(C)(O)c1cc(C(C)(C)N)cc(-c2ccc(F)cc2)n1 (single isomer, unassigned) [Example 04-B] | – | > 100 | – | < 10
6 | Cn1nc(-c2cscn2)cc1C(=O)NCC(C)(O)c1cc(C(C)(C)N)cc(-c2ccc(F)cc2)n1 (single isomer, unassigned) [Example 05-B] | – | > 100 | – | < 10
7 | CCn1nc(-c2cscn2)cc1C(=O)NCC(C)(O)c1cc(C(C)(C)N)cc(-c2ccc(F)cc2)n1 (single isomer, unassigned) [Example 06-B] | – | > 100 | – | < 10
8 | Cc1nc(-c2cscn2)sc1C(=O)NCC(C)(O)c1cc(C(C)(C)N)cc(-c2ccc(F)cc2)n1 (single isomer, unassigned) [Example 07-B] | – | > 100 | – | < 10
9 | CC(C)(N)c1cc(-c2ccc(F)cc2)nc(C(C)(O)CNC(=O)c2sc(-c3cscn3)nc2C2CC2)c1 (single isomer, unassigned) [Example 08-B] | – | > 100 | – | < 10
10 | CC(C)(N)c1cc(-c2ccc(F)cc2)nc(C(C)(O)CNC(=O)c2cc(-c3cscn3)ns2)c1 (single isomer, unassigned) [Example 09-B] | – | > 100 | – | < 10
11 | CC(C)(N)c1cc(-c2ccc(F)cc2)nc(C(C)(O)CNC(=O)c2cc(-c3ncccn3)ns2)c1 (single isomer, unassigned) [Example 10-B] | – | > 100 | – | < 10
12 | COc1nn(-c2ncccn2)cc1C(=O)NCC(C)(O)c1cc(C(C)(C)N)cc(-c2ccc(F)cc2)n1 (single isomer, unassigned) [Example 11-B] | – | > 100 | – | < 10
13 | Cn1nc(-n2cccn2)cc1C(=O)NCC(C)(O)c1cc(C(C)(C)N)cc(-c2ccc(Cl)c(F)c2)n1 (single isomer, unassigned) [Example 39-B, N-(2-(4-(2-aminopropan-2-yl)-6-(4-chloro-3-fluorophenyl)pyridin-2-yl)-2-hydroxypropyl)-1′-methyl-1′H-[1,3′-bipyrazole]-5′-carboxamide] | – | – | – | < 10
14 | Cn1nc(-n2cccn2)cc1C(=O)NCC(C)(O)c1cc(C(C)(C)N)cc(Cc2ccc(F)cc2)n1 (single isomer, unassigned) [Example 40-B, N-(2-(4-(2-aminopropan-2-yl)-6-(4-fluorobenzyl)pyridin-2-yl)-2-hydroxypropyl)-1′-methyl-1′H-[1,3′-bipyrazole]-5′-carboxamide] | – | – | – | < 10
15 | Cn1nc(-n2cccn2)cc1C(=O)NCC(O)(c1cc(C(C)(C)N)cc(-c2ccc(C(F)F)cc2)n1)C(F)(F)F (single isomer, unassigned) [Example 41-A, N-(2-(4-(2-aminopropan-2-yl)-6-(4-(difluoromethyl)phenyl)pyridin-2-yl)-3,3,3-trifluoro-2-hydroxypropyl)-1′-methyl-1′H-[1,3′-bipyrazole]-5′-carboxamide] | – | – | – | < 10
16 | Cn1nc(-n2cccn2)cc1C(=O)NCC(O)(c1cc(C(C)(C)N)cc(-c2ccc(C(F)(F)F)cc2)n1)C(F)(F)F (single isomer, unassigned) [Example 42-A, N-(2-(4-(2-aminopropan-2-yl)-6-(4-(trifluoromethyl)phenyl)pyridin-2-yl)-3,3,3-trifluoro-2-hydroxypropyl)-1′-methyl-1′H-[1,3′-bipyrazole]-5′-carboxamide] | – | – | – | < 10
17 | Cn1nc(-n2cccn2)cc1C(=O)NCC(O)(c1cc(C(C)(C)N)cc(-c2ccc(F)c(F)c2)n1)C(F)(F)F (single isomer, unassigned) [Example 43-A, N-(2-(4-(2-aminopropan-2-yl)-6-(3,4-difluorophenyl)pyridin-2-yl)-3,3,3-trifluoro-2-hydroxypropyl)-1′-methyl-1′H-[1,3′-bipyrazole]-5′-carboxamide] | – | – | – | < 10
18 | Cn1nc(-n2cccn2)cc1C(=O)NCC(O)(c1cc(C(C)(C)N)cc(-c2ccc(F)cc2F)n1)C(F)(F)F (single isomer, unassigned) [Example 44-A, N-(2-(4-(2-aminopropan-2-yl)-6-(2,4-difluorophenyl)pyridin-2-yl)-3,3,3-trifluoro-2-hydroxypropyl)-1′-methyl-1′H-[1,3′-bipyrazole]-5′-carboxamide] | – | – | – | < 10
19 | Cc1cc(F)ccc1-c1cc(C(C)(C)N)cc(C(O)(CNC(=O)c2cc(-n3cccn3)nn2C)C(F)(F)F)n1 (single isomer, unassigned) [Example 45-A, N-(2-(4-(2-aminopropan-2-yl)-6-(4-fluoro-2-methylphenyl)pyridin-2-yl)-3,3,3-trifluoro-2-hydroxypropyl)-1′-methyl-1′H-[1,3′-bipyrazole]-5′-carboxamide] | – | – | – | < 10
